Experimental data reported in patent US9855268B2, “Triazolo[4,5-d]pyrimidine derivatives” (Merck Patent GmbH, priority 2013, dated 2018).
Structures can show the parent of a compound that is named as a salt.

How the values were obtained:
GCN2 [1] = biological target: T1, GCN2 (Homo sapiens, UniProt Q9P2K8); test: GCN2 enzyme assay (TR-FRET Lanthascreen, GFP-eIF2alpha phosphorylation); format: biochemical; settings: 10 μM ATP, 80 nM GFP-eIF2a, 30 nM GCN2
How it was run: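 Phosphorylation of GFP-eIF2alpha (80 nM) by GCN2 run at room temperature with 10 μM ATP. After EDTA quench, product quantified by Lanthascreen TR-FRET (antibody–GFP complex, 340 nm excitation).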
Target sequence in this assay (Q9P2K8 whole entry, species assumed): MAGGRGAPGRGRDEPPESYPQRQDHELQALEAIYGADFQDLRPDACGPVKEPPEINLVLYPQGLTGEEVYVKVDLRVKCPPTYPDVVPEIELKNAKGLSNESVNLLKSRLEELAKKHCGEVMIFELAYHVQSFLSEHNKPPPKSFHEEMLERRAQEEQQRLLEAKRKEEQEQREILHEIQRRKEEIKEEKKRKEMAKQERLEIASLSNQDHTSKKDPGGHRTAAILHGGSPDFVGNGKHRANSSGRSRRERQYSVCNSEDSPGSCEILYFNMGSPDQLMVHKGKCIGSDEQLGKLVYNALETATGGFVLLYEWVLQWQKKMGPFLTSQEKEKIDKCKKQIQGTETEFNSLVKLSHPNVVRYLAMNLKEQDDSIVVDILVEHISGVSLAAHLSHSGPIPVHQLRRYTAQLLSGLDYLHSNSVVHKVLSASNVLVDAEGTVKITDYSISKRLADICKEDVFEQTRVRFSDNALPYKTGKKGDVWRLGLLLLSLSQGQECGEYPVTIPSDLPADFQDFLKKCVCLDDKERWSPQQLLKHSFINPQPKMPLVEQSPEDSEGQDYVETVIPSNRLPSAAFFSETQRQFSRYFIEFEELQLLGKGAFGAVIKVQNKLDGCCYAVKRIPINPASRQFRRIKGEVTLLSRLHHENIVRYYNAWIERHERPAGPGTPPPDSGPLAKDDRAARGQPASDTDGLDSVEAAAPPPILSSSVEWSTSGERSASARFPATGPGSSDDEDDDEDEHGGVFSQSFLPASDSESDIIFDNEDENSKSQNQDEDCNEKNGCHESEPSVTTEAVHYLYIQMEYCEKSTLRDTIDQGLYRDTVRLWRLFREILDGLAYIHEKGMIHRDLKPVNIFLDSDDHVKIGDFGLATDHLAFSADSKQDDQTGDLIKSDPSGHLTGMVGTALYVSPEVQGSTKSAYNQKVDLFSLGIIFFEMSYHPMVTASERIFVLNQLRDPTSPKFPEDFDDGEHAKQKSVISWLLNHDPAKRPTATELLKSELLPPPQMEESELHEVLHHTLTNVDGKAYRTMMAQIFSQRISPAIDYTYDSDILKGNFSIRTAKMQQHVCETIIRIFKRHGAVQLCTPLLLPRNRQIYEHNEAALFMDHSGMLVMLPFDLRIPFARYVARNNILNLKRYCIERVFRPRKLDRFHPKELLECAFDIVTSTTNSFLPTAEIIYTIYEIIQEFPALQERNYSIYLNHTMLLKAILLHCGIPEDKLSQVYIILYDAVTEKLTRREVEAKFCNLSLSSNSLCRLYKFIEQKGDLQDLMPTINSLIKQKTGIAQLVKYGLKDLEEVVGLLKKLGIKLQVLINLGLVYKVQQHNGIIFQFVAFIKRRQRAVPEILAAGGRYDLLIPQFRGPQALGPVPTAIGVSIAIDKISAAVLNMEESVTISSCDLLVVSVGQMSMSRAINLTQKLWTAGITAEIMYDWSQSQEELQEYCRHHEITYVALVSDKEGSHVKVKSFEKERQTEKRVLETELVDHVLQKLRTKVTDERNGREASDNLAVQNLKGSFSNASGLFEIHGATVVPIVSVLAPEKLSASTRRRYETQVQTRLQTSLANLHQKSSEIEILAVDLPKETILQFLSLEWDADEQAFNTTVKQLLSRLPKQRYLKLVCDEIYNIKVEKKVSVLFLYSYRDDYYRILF

GSK3α(h) = GSK3α(h) (Homo sapiens, UniProt P49840); test: GSK3α radiometric kinase assay (33P-ATP, phospho GS2 peptide); format: biochemical; settings: read-out: IC50 GSK3α (enzyme assay)
Experimental: GSK3α(h) is incubated with 8 mM MOPS pH 7,0, 0,2 mM EDTA, 20 μM
[…](p)EDEEE (phosphor GS2 peptide), 10 mM Mg-acetate and [gamma-33P-ATP](specific activity approx. 500 cpm/Pmol, concentration as required). The reaction is initiated by the addition of the MgATP. After incubation for 40 minutes at the room temperature, the Reaction is stopped by the addition of 3% phosphoric acid solution. 10 μL of reaction is then spotted onto a P30 filtermat and washed three times for 5 minutes in 50 mM phosphoric acid and once in methanol prior to drying and scintillation counting.

GCN2 [2] = biological target: T1, GCN2; test: Cellular assay of GCN2 activity (phospho-eIF2alpha immunocytochemistry after tryptophanol); format: cell-based; parameters: endogenous in cells; host or cells: U2OS; settings: Human U2OS cells, 2 h compound, 600 μM tryptophanol 30 min
Experimental: Cellular Assay for the Determination of Compound Activities
Human U2OS cells (2000 cells/well) are seeded into 384-well plates and incubated for 20 hours.
The next day, the cells are treated with the test compounds and incubated for 2 hours. Then, tryptophanol, at a final concentration of 600 μM, is added to the cells and those are incubated for 30 minutes.
The analysis of cellular GCN2 activities is done by immunocytochemistry.
Briefly, cells are fixated on the well surfaces by formaldehyde and permeabilised with Triton X-100.
The analysis and quantification of phosphorylated GCN2 is done by scanning the plates in the Acumen Explorer system (TTPLabtech). The obtained data are normalised against the untreated control wells (DMSO only) and expressed as % effect values. The determination of IC50 values is done by using the Graph Pad Prism software.
Target sequence in this assay (Q9P2K8 whole entry): as the sequence (Q9P2K8 whole entry, species assumed) above

Sequence of GSK3α(h) (P49840 whole entry): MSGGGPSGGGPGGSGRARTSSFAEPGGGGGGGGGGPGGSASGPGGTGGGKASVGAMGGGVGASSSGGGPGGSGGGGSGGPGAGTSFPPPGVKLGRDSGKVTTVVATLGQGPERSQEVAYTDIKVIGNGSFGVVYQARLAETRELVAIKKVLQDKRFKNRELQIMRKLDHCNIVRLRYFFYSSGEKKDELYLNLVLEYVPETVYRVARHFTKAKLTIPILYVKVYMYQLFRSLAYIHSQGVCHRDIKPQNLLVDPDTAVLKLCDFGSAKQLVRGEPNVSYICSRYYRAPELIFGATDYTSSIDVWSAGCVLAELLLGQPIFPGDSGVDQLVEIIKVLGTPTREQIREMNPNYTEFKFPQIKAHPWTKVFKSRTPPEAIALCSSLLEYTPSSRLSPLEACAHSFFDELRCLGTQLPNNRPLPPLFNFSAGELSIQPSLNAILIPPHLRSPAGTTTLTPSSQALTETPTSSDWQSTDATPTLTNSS

SMILES | IC50 (GCN2 [1]) | IC50 (GSK3α(h)) | IC50 (GCN2 [2])
NC(=O)[C@@H]1CC[C@@H](Nc2ncc3nnn(-c4cccc(I)c4)c3n2)C1 [A176, (1R,3R)-3-[3-(3-iodo-phenyl)-3H-[1,2,3]triazolo[4,5-d]pyrimidin-5-ylamino]-cyclopentanecarboxylic acid amide] | < 1000 nM | < 1000 nM | –
Cn1cc(CNc2ncc3nnn(-c4ccc5ncccc5c4)c3n2)cn1 [B1, (1-methyl-1H-pyrazol-4-ylmethyl)-(3-quinolin-6-yl-3H-[1,2,3]triazolo[4,5-d]pyrimidin-5-yl)-amine] | < 1000 nM | – | 5000 to 10000 nM
O[C@@H]1CC[C@@H](Nc2ncc3nnn(-c4ccc(-c5cnn(CCc6nnn[nH]6)c5)cc4)c3n2)C1 (relative stereo) [A266, trans-3-[3-(4-{1-[2-(1H-Tetrazol-5-yl)-ethyl]-1H-pyrazol-4-yl}-phenyl)-3H-[1,2,3]triazolo[4,5-d]pyrimidin-5-ylamino]-cyclopentanol] | < 1000 nM | < 1000 nM | –
Cn1cc(-c2ccc(-n3nnc4cnc(N[C@@H]5CCNC5)nc43)cc2)cn1 [A116, {3-[4-(1-methyl-1H-pyrazol-4-yl)-phenyl]-3H-[1,2,3]triazolo[4,5-d]pyrimidin-5-yl}-(R)-pyrrolidin-3-yl-amine] | < 1000 nM | – | 5000 to 10000 nM
COc1ccc(-n2nnc3cnc(NC(C)CC(N)=O)nc32)cc1 (stereo not drawn) [A144, 3-[3-(4-methoxy-phenyl)-3H-[1,2,3]triazolo[4,5-d]pyrimidin-5-ylamino]-butyramide] | < 1000 nM | < 1000 nM | –
NC(=O)[C@@H]1CC[C@@H](Nc2ncc3nnn(-c4ccc(-c5cnn(CCc6nnn[nH]6)c5)cc4)c3n2)C1 [A265, (1R,3R)-3-[3-(4-{1-[2-(1H-tetrazol-5-yl)-ethyl]-1H-pyrazol-4-yl}-phenyl)-3H-[1,2,3]triazolo[4,5-d]pyrimidin-5-ylamino]-cyclopentanecarboxylic acid amide] | < 1000 nM | < 1000 nM | –
NC(=O)[C@@H]1CC[C@@H](Nc2ncc3nnn(-c4ccc(I)cc4)c3n2)C1 [A170, (1R,3R)-3-[3-(4-iodo-phenyl)-3H-[1,2,3]triazolo[4,5-d]pyrimidin-5-ylamino]-cyclopentanecarboxylic acid amide] | < 1000 nM | – | 1000 to 5000 nM
O=c1cccnn1CCn1cc(-c2ccc(-n3nnc4cnc(N[C@@H]5CC[C@@H](O)C5)nc43)cc2)cn1 [A236, 2-[2-(4-{4-[5-((1R,3R)-3-hydroxy-cyclopentylamino)-[1,2,3]triazolo[4,5-d]-pyrimidin-3-yl]-phenyl}-pyrazol-1-yl)-ethyl]-2H-pyridazin-3-one] | < 1000 nM | – | 5000 to 10000 nM
COc1ccc(-n2nnc3cnc(N[C@H]4CC[C@@H](S(C)(=O)=O)C4)nc32)cc1 (relative stereo) [A264, ((cis)-3-methanesulfonyl-cyclopentyl)-[3-(4-methoxy-phenyl)-3H-[1,2,3]triazolo[4,5-d]pyrimidin-5-yl]-amine] | < 1000 nM | < 1000 nM | –
COc1ccc(-n2nnc3cnc(N[C@H]4CC[C@H](C(N)=O)CC4)nc32)cc1 [A143, 4-[3-(4-methoxy-phenyl)-3H-[1,2,3]triazolo[4,5-d]pyrimidin-5-ylamino]-cyclohexanecarboxylic acid amide] | < 1000 nM | < 1000 nM | –
NC(=O)[C@@H]1CC[C@@H](Nc2ncc3nnn(-c4ccc5nsnc5c4)c3n2)C1 [A174, (1R,3R)-3-(3-benzo[1,2,5]thiadiazol-5-yl-3H-[1,2,3]triazolo[4,5-d]pyrimidin-5-ylamino)-cyclopentanecarboxylic acid amide] | < 1000 nM | < 1000 nM | –
NC(=O)[C@H]1CC[C@@H](Nc2ncc3nnn(-c4ccc(N5CCCC5)cc4)c3n2)C1 [A138, (1S,3R)-3-[3-(4-pyrrolidin-1-yl-phenyl)-3H-[1,2,3]triazolo[4,5-d]pyrimidin-5-ylamino]-cyclopentanecarboxylic acid amide] | < 1000 nM | < 1000 nM | –
COc1ccc(-n2nnc3cnc(NCCCC(N)=O)nc32)cc1 [A142, 4-[3-(4-methoxy-phenyl)-3H-[1,2,3]triazolo[4,5-d]pyrimidin-5-ylamino]-butyramide] | < 1000 nM | < 1000 nM | –
COc1ccc(-n2nnc3cnc(N[C@@H]4CCN(C(=O)CCN5CCN(C)CC5)C4)nc32)cc1 [A132, 1-{(R)-3-[3-(4-methoxy-phenyl)-3H-[1,2,3]triazolo[4,5-d]pyrimidin-5-ylamino]-pyrrolidin-1-yl}-3-(4-methyl-piperazin-1-yl)-propan-1-one] | < 1000 nM | < 1000 nM | –
COc1ccc(-n2nnc3cnc(N[C@@H]4CCN(S(N)(=O)=O)C4)nc32)cc1 [A270, (R)-3-[3-(4-methoxy-phenyl)-3H-[1,2,3]triazolo[4,5-d]pyrimidin-5-ylamino]-pyrrolidine-1-sulfonic acid amide] | < 1000 nM | < 1000 nM | –
COc1ccc(-n2nnc3cnc(N[C@@H]4CC[C@@H](C(N)=O)C4)nc32)cn1 [A173, (1R,3R)-3-[3-(6-methoxy-pyridin-3-yl)-3H-[1,2,3]triazolo[4,5-d]pyrimidin-5-ylamino]-cyclopentanecarboxylic acid amide] | < 1000 nM | < 1000 nM | –
COc1ccc(-n2nnc3cnc(N[C@@H]4CC[C@@H](C(N)=O)C4)nc32)nc1 [A175, (1R,3R)-3-[3-(5-methoxy-pyridin-2-yl)-3H-[1,2,3]triazolo[4,5-d]pyrimidin-5-ylamino]-cyclopentanecarboxylic acid amide] | < 1000 nM | < 1000 nM | –
NC(=O)[C@H]1CC[C@@H](Nc2ncc3nnn(-c4ccc5nsnc5c4)c3n2)C1 [A172, (1S,3R)-3-(3-benzo[1,2,5]thiadiazol-5-yl-3H-[1,2,3]triazolo[4,5-d]pyrimidin-5-ylamino)-cyclopentanecarboxylic acid amide] | < 1000 nM | < 1000 nM | –
COc1ccc(-n2nnc3cnc(N[C@H]4CC[C@H](CO)C4)nc32)cc1 [A111, {(1S,3S)-3-[3-(4-methoxy-phenyl)-3H-[1,2,3]triazolo[4,5-d]pyrimidin-5-ylamino]-cyclopentyl}-methanol] | < 1000 nM | < 1000 nM | –
Cc1nc2ccc(-n3nnc4cnc(N[C@@H]5CC[C@@H](O)C5)nc43)cc2o1 (relative stereo) [A199] | < 1000 nM | < 1000 nM | –
O[C@@H]1CC[C@@H](Nc2ncc3nnn(-c4ccc5nsnc5c4)c3n2)C1 (relative stereo) [A200, (trans)-3-(3-benzo[1,2,5]thiadiazol-5-yl-3H-[1,2,3]triazolo[4,5-d]pyrimidin-5-ylamino)-cyclopentanol] | < 1000 nM | < 1000 nM | –
Cn1cc(-c2ccc(-n3nnc4cnc(N[C@@H]5CCN(C(=O)CCCN6CCNCC6)C5)nc43)cc2)cn1 [A271, 1-((R)-3-{3-[4-(1-methyl-1H-pyrazol-4-yl)-phenyl]-3H-[1,2,3]triazolo[4,5-d]pyrimidin-5-ylamino}-pyrrolidin-1-yl)-4-piperazin-1-yl-butan-1-one] | < 1000 nM | < 1000 nM | –
O[C@@H]1CC[C@@H](Nc2ncc3nnn(-c4ccc(N5CCCC5)cc4)c3n2)C1 (relative stereo) [A198, (trans)-3-[3-(4-pyrrolidin-1-yl-phenyl)-3H-[1,2,3]triazolo[4,5-d]pyrimidin-5-ylamino]-cyclopentanol] | < 1000 nM | < 1000 nM | –
COc1ccc(-n2nnc3cnc(N[C@H]4CCOC4)nc32)cc1 [A28, [3-(4-methoxy-phenyl)-3H-[1,2,3]triazolo[4,5-d]pyrimidin-5-yl]-(S)-tetrahydrofuran-3-yl-amine] | < 1000 nM | – | –
COc1ccc(-n2nnc3cnc(N[C@H]4CCN(C(=O)OC(C)(C)C)C4)nc32)cc1 [A66, (S)-3-[3-(4-methoxy-phenyl)-3H-[1,2,3]triazolo[4,5-d]pyrimidin-5-ylamino]-pyrrolidine-1-carboxylic acid tert-butyl ester] | 5000 to 10000 nM | – | –
COc1ccc(-n2nnc3cnc(N[C@H]4CC[C@H](SC)C4)nc32)cc1 (relative stereo) [A262, [3-(4-methoxy-phenyl)-3H-[1,2,3]triazolo[4,5-d]pyrimidin-5-yl]-((trans)-3-methylsulfanyl-cyclopentyl)-amine] | < 1000 nM | – | –
COc1ccc(-n2nnc3cnc(N[C@H]4C[C@@H](O)C4)nc32)cc1 [A25, cis-3-[3-(4-methoxy-phenyl)-3H-[1,2,3]triazolo[4,5-d]pyrimidin-5-ylamino]-cyclobutanol] | < 1000 nM | – | –
COc1ccc(-n2nnc3cnc(N[C@@H]4CCN(C(=O)CCN(C)C)C4)nc32)cc1 [A85, 3-dimethylamino-1-{(R)-3-[3-(4-methoxy-phenyl)-3H-[1,2,3]triazolo[4,5-d]-pyrimidin-5-ylamino]-pyrrolidin-1-yl}-propan-1-one formate] | < 1000 nM | – | –
